Measured values: ChEMBL document CHEMBL3098003, “Structure-based design of 2-aminopyridine oxazolidinones as potent and selective tankyrase inhibitors” (ACS Med Chem Lett, 2013)
pIC50: −log10 of the molar value. Active and inactive are the calls of the source.

Tests used:
[1] = target: Dual specificity protein kinase CLK4 (Homo sapiens) (UniProt Q9HAZ1); assay: Inhibition of CLK4 (unknown origin) at 1 uM after 1 hr
[2] = target: Wee1-like protein kinase (Homo sapiens) (UniProt P30291); assay: Inhibition of WEE1 (unknown origin) at 1 uM after 1 hr
[3] = target: Cyclin-dependent kinase 2 (Homo sapiens) (UniProt P24941); assay: Inhibition of CDK2 (unknown origin) at 1 uM after 1 hr
Salmonella typhimurium [4] = assay: Genotoxicity in Salmonella typhimurium by microAmes assay; format: toxicity, organism-based; settings: salmonella enterica subsp. enterica serovar typhimurium
[5] = Clearance in Sprague-Dawley rat at 0.5 mg/kg, iv; format: ADME, organism-based; set-up: dose 0.5 mg/kg, route intravenous; settings: in vivo
[6] = target: Calcium/calmodulin-dependent protein kinase type II subunit delta (Homo sapiens) (UniProt Q13557); assay: Inhibition of CAMK2D (unknown origin) at 1 uM after 1 hr
[7] = target: Phosphatidylinositol 4,5-bisphosphate 3-kinase catalytic subunit delta isoform (Homo sapiens) (UniProt O00329); assay: Inhibition of PIK3CD (unknown origin) at 1 uM after 1 hr
[8] = target: Mitogen-activated protein kinase 14 (Homo sapiens) (UniProt Q16539); assay: Inhibition of MAPK14 (unknown origin) at 1 uM after 1 hr
[9] = target: Serine/threonine-protein kinase D2 (Homo sapiens) (UniProt Q9BZL6); assay: Inhibition of PRKD2 (unknown origin) at 1 uM after 1 hr
[10] = target: Epithelial discoidin domain-containing receptor 1 (Homo sapiens) (UniProt Q08345); assay: Inhibition of DDR1 (unknown origin) at 1 uM after 1 hr relative to control
[11] = Volume of distribution at steady state in Sprague-Dawley rat at 0.5 mg/kg, iv; format: ADME, organism-based; set-up: dose 0.5 mg/kg, route intravenous; settings: in vivo, read-out: Vdss
[12] = target: Tyrosine-protein kinase Fyn (Homo sapiens) (UniProt P06241); assay: Inhibition of FYN (unknown origin) at 1 uM after 1 hr
[13] = target: Non-receptor tyrosine-protein kinase TYK2 (Homo sapiens) (UniProt P29597); assay: Inhibition of TYK2 (unknown origin) at 1 uM after 1 hr
[14] = Cmax in Sprague-Dawley rat at 2 mg/kg, po; format: ADME, organism-based; set-up: dose 2 mg/kg, route oral; settings: in vivo
[15] = Elimination half life in Sprague-Dawley rat at 0.5 mg/kg, iv; format: ADME, organism-based; set-up: dose 0.5 mg/kg, route intravenous; settings: in vivo, read-out: beta t1/2 (converted)
[16] = target: Ribosomal protein S6 kinase alpha-1 (Homo sapiens) (UniProt Q15418); assay: Inhibition of RPS6KA1 (unknown origin) at 1 uM after 1 hr
[17] = Oral bioavailability in Sprague-Dawley rat at 2 mg/kg; format: ADME, organism-based; settings: in vivo
[18] = target: cAMP-dependent protein kinase catalytic subunit alpha (Homo sapiens) (UniProt P17612); assay: Inhibition of PRKACA (unknown origin) at 1 uM after 1 hr
[19] = target: Homeodomain-interacting protein kinase 1 (Homo sapiens) (UniProt Q86Z02); assay: Inhibition of HIPK1 (unknown origin) at 1 uM after 1 hr
[20] = AUC in CD1 mouse at 30 mg/kg, po; format: ADME, organism-based; set-up: dose 30 mg/kg, route oral; settings: plasma
[21] = target: Mitogen-activated protein kinase kinase kinase 1 (Homo sapiens) (UniProt Q13233); assay: Inhibition of MAP3K1 (unknown origin) at 1 uM after 1 hr
[22] = target: Tyrosine-protein kinase ABL1 (Homo sapiens) (UniProt P00519); assay: Inhibition of ABL1 (unknown origin) at 1 uM after 1 hr
[23] = target: Death-associated protein kinase 1 (Homo sapiens) (UniProt P53355); assay: Inhibition of DAPK1 (unknown origin) at 1 uM after 1 hr
[24] = target: Serine/threonine-protein kinase PLK4 (Homo sapiens) (UniProt O00444); assay: Inhibition of PLK4 (unknown origin) at 1 uM after 1 hr
[25] = target: Interleukin-1 receptor-associated kinase 4 (Homo sapiens) (UniProt Q9NWZ3); assay: Inhibition of IRAK4 (unknown origin) at 1 uM after 1 hr
[26] = target: Serine/threonine-protein kinase Nek4 (Homo sapiens) (UniProt P51957); assay: Inhibition of NEK4 (unknown origin) at 1 uM after 1 hr
[27] = target: MAP kinase-interacting serine/threonine-protein kinase 1 (Homo sapiens) (UniProt Q9BUB5); assay: Inhibition of MKNK1 (unknown origin) at 1 uM after 1 hr
[28] = target: Proto-oncogene tyrosine-protein kinase Src (Homo sapiens) (UniProt P12931); assay: Inhibition of SRC (unknown origin) at 1 uM after 1 hr
[29] = target: Interferon-induced, double-stranded RNA-activated protein kinase (Homo sapiens) (UniProt P19525); assay: Inhibition of EIF2AK2 (unknown origin) at 1 uM after 1 hr
[30] = target: Tyrosine-protein kinase Lck (Homo sapiens) (UniProt P06239); assay: Inhibition of LCK (unknown origin) at 1 uM after 1 hr
[31] = Half life in CD1 mouse at 30 mg/kg, po; format: ADME, organism-based; set-up: dose 30 mg/kg, route oral; settings: in vivo
[32] = target: Poly [ADP-ribose] polymerase 1 (Homo sapiens, UniProt P09874); assay: Inhibition of PARP1 (unknown origin)
[33] = AUC in Sprague-Dawley rat at 2 mg/kg, po; format: ADME, organism-based; set-up: dose 2 mg/kg, route oral; settings: plasma
[34] = target: Tyrosine-protein kinase JAK2 (Homo sapiens) (UniProt O60674); assay: Inhibition of JAK2 (unknown origin) at 1 uM after 1 hr
[35] = target: Poly [ADP-ribose] polymerase 2 (Homo sapiens, UniProt Q9UGN5); assay: Inhibition of PARP2 (unknown origin)
[36] = target: Ephrin type-B receptor 3 (Homo sapiens) (UniProt P54753); assay: Inhibition of EPHB3 (unknown origin) at 1 uM after 1 hr
[37] = target: Serine/threonine-protein kinase 3 (Homo sapiens) (UniProt Q13188); assay: Inhibition of STK3 (unknown origin) at 1 uM after 1 hr
[38] = target: Rho-associated protein kinase 2 (Homo sapiens) (UniProt O75116); assay: Inhibition of ROCK2 (unknown origin) at 1 uM after 1 hr
[39] = target: Mitogen-activated protein kinase kinase kinase kinase 4 (Homo sapiens) (UniProt O95819); assay: Inhibition of MAP4K4 (unknown origin) at 1 uM after 1 hr
[40] = target: Mitogen-activated protein kinase kinase kinase 9 (Homo sapiens) (UniProt P80192); assay: Inhibition of MAP3K9 (unknown origin) at 1 uM after 1 hr
[41] = target: High affinity nerve growth factor receptor (Homo sapiens) (UniProt P04629); assay: Inhibition of NTRK1 (unknown origin) at 1 uM after 1 hr
[42] = Half life in Sprague-Dawley rat at 2 mg/kg, po; format: ADME, organism-based; set-up: dose 2 mg/kg, route oral; settings: in vivo
[43] = target: Casein kinase I isoform delta (Homo sapiens) (UniProt P48730); assay: Inhibition of CSNK1D (unknown origin) at 1 uM after 1 hr
Salmonella typhimurium [44] = assay: Genotoxicity in Salmonella typhimurium by microAmes assay in presence of S9 fraction; format: toxicity, organism-based; settings: salmonella enterica subsp. enterica serovar typhimurium
[45] = Cmax in CD1 mouse at 30 mg/kg, po; format: ADME, organism-based; set-up: dose 30 mg/kg, route oral; settings: in vivo

Sequence of Homeodomain-interacting protein kinase 1 (Homo sapiens) (Q86Z02 whole entry, looked up): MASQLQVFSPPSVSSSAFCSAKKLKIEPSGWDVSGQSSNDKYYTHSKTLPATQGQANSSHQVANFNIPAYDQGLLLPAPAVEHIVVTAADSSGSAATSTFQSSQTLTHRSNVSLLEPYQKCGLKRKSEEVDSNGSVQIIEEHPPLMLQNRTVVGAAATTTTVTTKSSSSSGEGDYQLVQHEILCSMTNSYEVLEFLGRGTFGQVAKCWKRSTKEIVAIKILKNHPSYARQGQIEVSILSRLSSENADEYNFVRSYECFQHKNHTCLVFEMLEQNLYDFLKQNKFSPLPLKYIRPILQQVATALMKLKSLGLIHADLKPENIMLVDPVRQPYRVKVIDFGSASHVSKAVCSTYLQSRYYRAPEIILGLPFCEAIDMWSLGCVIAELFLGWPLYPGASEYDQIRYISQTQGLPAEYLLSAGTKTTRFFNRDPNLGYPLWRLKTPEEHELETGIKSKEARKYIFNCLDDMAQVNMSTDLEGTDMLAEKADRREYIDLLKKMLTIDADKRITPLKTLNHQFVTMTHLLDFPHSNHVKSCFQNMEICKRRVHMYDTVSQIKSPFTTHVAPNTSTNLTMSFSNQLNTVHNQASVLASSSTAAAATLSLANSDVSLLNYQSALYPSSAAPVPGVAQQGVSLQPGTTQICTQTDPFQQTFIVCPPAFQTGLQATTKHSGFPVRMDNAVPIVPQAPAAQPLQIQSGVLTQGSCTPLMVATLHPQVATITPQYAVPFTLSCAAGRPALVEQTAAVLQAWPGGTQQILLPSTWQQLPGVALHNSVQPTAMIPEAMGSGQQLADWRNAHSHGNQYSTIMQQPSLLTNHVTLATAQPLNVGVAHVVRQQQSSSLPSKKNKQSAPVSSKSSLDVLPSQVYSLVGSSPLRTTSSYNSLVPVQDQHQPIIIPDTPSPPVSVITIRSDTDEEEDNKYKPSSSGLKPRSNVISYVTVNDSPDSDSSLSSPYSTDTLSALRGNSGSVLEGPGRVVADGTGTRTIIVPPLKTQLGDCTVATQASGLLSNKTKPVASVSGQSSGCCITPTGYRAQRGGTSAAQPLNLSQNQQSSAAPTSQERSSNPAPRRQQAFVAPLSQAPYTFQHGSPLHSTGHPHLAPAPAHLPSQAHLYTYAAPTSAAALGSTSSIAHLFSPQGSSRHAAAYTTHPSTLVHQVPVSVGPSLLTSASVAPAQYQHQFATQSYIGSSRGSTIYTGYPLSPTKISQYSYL
Sequence of Tyrosine-protein kinase JAK2 (Homo sapiens) (O60674 whole entry): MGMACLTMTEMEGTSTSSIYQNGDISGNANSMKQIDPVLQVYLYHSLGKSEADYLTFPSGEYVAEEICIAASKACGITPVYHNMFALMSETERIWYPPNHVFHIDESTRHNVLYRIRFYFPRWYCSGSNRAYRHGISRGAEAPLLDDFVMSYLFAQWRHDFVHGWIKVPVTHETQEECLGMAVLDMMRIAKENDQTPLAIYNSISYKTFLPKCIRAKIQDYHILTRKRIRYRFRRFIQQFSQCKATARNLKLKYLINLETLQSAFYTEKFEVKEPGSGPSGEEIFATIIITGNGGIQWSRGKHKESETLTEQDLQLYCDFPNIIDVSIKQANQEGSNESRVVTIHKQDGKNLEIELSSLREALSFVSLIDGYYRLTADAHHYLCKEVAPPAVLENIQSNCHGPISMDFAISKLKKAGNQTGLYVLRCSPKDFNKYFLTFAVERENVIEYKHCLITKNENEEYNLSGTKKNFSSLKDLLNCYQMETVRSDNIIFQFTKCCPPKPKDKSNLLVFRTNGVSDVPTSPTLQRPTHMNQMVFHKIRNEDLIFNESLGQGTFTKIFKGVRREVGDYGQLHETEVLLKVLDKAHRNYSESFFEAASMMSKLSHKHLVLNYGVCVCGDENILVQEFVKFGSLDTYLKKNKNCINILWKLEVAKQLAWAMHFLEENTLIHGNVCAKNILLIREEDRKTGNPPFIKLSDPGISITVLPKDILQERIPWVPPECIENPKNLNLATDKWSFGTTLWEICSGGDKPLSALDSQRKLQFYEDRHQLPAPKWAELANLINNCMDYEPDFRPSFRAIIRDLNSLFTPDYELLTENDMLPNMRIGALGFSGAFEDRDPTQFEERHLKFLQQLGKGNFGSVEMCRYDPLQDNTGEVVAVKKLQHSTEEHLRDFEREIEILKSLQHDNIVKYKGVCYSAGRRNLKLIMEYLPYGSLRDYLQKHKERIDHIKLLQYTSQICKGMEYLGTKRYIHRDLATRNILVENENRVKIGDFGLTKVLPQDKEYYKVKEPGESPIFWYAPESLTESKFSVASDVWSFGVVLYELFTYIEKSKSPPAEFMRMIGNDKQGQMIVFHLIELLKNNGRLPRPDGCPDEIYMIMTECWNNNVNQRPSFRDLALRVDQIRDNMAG
Sequence of Ribosomal protein S6 kinase alpha-1 (Homo sapiens) (Q15418 whole entry): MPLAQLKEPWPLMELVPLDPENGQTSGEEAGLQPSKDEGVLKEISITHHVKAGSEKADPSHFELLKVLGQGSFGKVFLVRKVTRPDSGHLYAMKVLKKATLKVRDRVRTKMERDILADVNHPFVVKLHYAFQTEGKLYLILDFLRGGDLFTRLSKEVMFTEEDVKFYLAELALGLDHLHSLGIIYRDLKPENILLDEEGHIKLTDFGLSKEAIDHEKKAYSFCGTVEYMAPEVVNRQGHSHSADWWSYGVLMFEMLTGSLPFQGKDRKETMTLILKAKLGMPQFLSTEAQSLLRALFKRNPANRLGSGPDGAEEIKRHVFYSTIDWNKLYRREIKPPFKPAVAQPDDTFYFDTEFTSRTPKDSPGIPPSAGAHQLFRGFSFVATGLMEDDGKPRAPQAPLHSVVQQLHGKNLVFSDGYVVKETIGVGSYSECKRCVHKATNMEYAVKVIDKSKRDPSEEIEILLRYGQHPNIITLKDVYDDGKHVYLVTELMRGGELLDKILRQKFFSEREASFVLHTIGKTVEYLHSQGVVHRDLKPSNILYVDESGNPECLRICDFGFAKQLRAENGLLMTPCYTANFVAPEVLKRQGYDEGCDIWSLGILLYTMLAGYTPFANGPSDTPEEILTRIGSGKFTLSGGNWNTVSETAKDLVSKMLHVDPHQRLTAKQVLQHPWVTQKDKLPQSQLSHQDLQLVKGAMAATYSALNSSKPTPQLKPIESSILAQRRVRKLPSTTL
Sequence of Poly [ADP-ribose] polymerase 2 (Q9UGN5 whole entry): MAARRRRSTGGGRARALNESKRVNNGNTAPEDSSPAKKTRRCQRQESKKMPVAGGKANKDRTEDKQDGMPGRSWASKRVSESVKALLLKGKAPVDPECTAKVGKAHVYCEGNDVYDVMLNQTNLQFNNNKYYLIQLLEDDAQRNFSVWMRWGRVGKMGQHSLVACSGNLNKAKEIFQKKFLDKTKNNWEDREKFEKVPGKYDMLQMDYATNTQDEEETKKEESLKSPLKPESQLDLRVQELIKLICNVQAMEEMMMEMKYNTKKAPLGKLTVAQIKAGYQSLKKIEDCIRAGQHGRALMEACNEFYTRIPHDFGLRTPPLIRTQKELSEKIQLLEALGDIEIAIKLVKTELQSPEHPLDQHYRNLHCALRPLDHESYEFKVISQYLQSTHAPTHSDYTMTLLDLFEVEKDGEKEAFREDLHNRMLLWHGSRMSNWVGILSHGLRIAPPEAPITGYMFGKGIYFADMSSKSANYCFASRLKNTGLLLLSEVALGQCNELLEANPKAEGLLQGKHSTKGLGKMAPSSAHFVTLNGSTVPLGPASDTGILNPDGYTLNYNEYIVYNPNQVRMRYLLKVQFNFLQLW
Sequence of Non-receptor tyrosine-protein kinase TYK2 (Homo sapiens) (P29597 whole entry): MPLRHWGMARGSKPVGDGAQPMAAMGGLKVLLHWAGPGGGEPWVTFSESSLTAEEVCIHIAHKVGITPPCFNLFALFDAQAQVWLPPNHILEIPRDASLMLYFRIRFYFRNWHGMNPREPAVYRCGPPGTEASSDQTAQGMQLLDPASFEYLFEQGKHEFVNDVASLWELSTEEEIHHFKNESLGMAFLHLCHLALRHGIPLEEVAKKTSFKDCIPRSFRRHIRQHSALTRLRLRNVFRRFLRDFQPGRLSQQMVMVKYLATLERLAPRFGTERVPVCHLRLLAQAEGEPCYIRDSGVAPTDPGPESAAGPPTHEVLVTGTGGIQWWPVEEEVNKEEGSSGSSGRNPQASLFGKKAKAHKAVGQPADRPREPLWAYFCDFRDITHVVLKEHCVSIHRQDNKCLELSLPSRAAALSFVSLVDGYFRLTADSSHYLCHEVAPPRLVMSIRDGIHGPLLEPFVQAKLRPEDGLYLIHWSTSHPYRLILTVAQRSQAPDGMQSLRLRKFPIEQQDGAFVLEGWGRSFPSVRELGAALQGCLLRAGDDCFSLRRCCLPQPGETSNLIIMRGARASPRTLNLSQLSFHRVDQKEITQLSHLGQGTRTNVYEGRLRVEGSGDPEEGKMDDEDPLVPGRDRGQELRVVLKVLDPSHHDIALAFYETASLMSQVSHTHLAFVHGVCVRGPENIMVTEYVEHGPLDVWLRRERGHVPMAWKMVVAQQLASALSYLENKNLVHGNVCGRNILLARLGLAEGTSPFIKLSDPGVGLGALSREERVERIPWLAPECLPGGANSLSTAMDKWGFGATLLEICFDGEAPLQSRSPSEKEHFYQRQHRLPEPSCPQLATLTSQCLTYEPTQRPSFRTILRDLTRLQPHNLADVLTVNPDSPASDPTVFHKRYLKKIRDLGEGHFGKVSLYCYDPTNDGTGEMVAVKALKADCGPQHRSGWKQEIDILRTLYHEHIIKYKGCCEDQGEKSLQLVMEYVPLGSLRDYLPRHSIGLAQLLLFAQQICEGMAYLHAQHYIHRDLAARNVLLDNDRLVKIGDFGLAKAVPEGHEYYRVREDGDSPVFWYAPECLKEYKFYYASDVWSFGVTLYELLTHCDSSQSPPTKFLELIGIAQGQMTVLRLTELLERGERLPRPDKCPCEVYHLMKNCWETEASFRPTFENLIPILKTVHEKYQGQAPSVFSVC

CC1(C)OC(=O)N([C@H]2CC[C@H](c3cnc(N)c(-c4ncccn4)c3)CC2)[C@H]1c1ccccc1
12.5 mL/min/kg: clearance [5]
2.85 L/kg: Vd [11]
36.3 µM·h: AUC [20]
< 4.07: pIC50 [32]
2.9 h: half-life [42]
3.5 h: half-life [31]
inactive: inhibition [1] | inhibition [2] | inhibition [3] | inhibition [6] | inhibition [7] | inhibition [8] | inhibition [9] | inhibition [12] | inhibition [13] | inhibition [16] | inhibition [18] | inhibition [19] | inhibition [21] | inhibition [22] | inhibition [23] | inhibition [24] | inhibition [25] | inhibition [26] | inhibition [27] | inhibition [28] | inhibition [29] | inhibition [30] | inhibition [34] | inhibition [36] | inhibition [37] | inhibition [38] | inhibition [39] | inhibition [40] | inhibition [41] | inhibition [43]
6.09 µM: Cmax [45]
< 3.77: pIC50 [35]
Non-toxic: Activity (Salmonella typhimurium [4]) | Activity (Salmonella typhimurium [44])
18%: inhibition [10]
33%: bioavailability [17]
1.98 µM·h: AUC [33]
0.45 µM: Cmax [14]
3.6 h: half-life [15]

CC1(C)OC(=O)N(c2ccc(-c3cnc(N)c(-c4ncccn4)c3)cc2)[C@H]1c1ccccc1
8.67 mL/min/kg: clearance [5]
63.3 µM·h: AUC [20]
Toxic: Activity (Salmonella typhimurium [4]) | Activity (Salmonella typhimurium [44])
7.88 µM: Cmax [45]
3.7 h: half-life [31]
2.71 µM·h: AUC [33]
0.37 µM: Cmax [14]
4.3 h: half-life [15]
29%: bioavailability [17]
4.6 h: half-life [42]
inactive: inhibition [1] | inhibition [2] | inhibition [3] | inhibition [6] | inhibition [7] | inhibition [8] | inhibition [9] | inhibition [10] | inhibition [12] | inhibition [13] | inhibition [16] | inhibition [18] | inhibition [19] | inhibition [21] | inhibition [22] | inhibition [23] | inhibition [24] | inhibition [25] | inhibition [26] | inhibition [27] | inhibition [28] | inhibition [29] | inhibition [30] | inhibition [34] | inhibition [36] | inhibition [37] | inhibition [38] | inhibition [39] | inhibition [40] | inhibition [41] | inhibition [43]
2.32 L/kg: Vd [11]
< 3.77: pIC50 [35]
< 4.07: pIC50 [32]
